Measurements published in patent US20210333263A1, “REDOX ACTIVATABLE FLUORESCENT SENSORS” (The Board of Regents of the University of Texas System, priority 2016, published 2021).

B1: OVA^qRAS: Ovalbumin labeled by qRAS (conjugate, UniProt P01012 2-386, looked up)
Ovalbumin: GSIGAASMEFCFDVFKELKVHHANENIFYCPIAIMSALAMVYLGAKDSTRTQINKVVRFDKLPGFGDSIEAQCGTSVNVHSSLRDILNQITKPNDVYSFSLASRLYAEERYPILPEYLQCVKELYRGGLEPINFQTAADQARELINSWVESQTNGIIRNVLQPSSVDSQTAMVLVNAIVFKGLWEKAFKDEDTQAMPFRVTEQESKPVQMMYQIGLFRVASMASEKMKILELPFASGTMSMLVLLPDEVSGLEQLESIINFEKLTEWTSSNVMEERKIKVYLPRMKMEEKYNLTSVLMAMGITDVFSSSANLSGISSAESLKISQAVHAAHAEINEAGREVVGSAEAGVDAASVSEEFRADHPFLFCIKHIATNAVLFFGRCVSP
modifications: qRAS label

Experiments:
A549 lung cancer cells = assay: High-throughput quantification of cytosolic delivery of qRAS-labeled protein on a plate reader; format: cell-based; details: cells pretreated with 50 μM NEM for 30 min, then JetPEI and OVA^qRAS
Method: A549 cancer cells were seeded into 96-well black plate at a density of 10,000 cells per well and incubated for 24 hr. The polymer solution (100 μg/mL) and qRAS-labeled protein (OVA^qRAS or IgG^qRAS, 25 μg/mL) were co-incubated with cells for 40 min at 37° C. The cells were washed twice with PBS (pH 7.4) and cultured in complete culture medium. The fluorescence of TMR and Cy5 were measured on a Tecan fluorescent plate reader at different times. At 24 hr, 5 mM DTT was added to cleave the intracellular disulphide bond and completely release the TMR signal. The excitation and emission settings: TMR: Ex: 545 nm with bandwidth 9 nm, Em: 595 nm with bandwidth 20 nm; Cy5: Ex: 640 nm with bandwidth 9 nm, Em: 690 nm with bandwidth 20 nm.
The activation percentage (%) of OVA^qRAS was calculated using the equation described below:
Activation (%)=(FTMR−F0)/(FTMR,DTT−F0)*100
where FTMR is the fluorescence intensity of TMR at different times, FTMR,DTT is the fluorescence intensity of TMR after the addition of DTT at 24 hr, and F0 is the background of TMR fluorescence.
For the N-ethylmaleimide (NEM) blocking experiments, the same procedures were used except that the cells were pretreated with 50 μM NEM for 30 min prior to the treatment with polymer and OVA^qRAS.

[1] = Fluorescence emission as a function of pH in PBS; format: physicochemical; details: pH 4.0 to 8.0, PBS, 6 hours
Method: Samples were excited at 390 nm.
FIG. 9 show the normalized fluorescence emission ratio of OVA^qRAS in PBS at different pH. OVA^qRAS (0.5 mg/mL) was incubated in PBS with different pH for 6 hours. The fluorescence emission spectra of TMR and Cy5 were recorded using a Hitachi fluorometer with excitation wavelength at 550 nm and 640 nm, respectively.

Molecule | fluorescence signals of OVA^qRAS after NEM pretreatment (A549 lung cancer cells) | TMR/Cy5 ratio across pH range [1]
CCN1C(=O)C=CC1=O [N-ethylmaleimide] | significant suppression of fluorescence signals | 
B1 |  | remained constant
